In ChEMBL document CHEMBL3739261, “Synthesis and antibacterial activity evaluation of C-5 side chain modified analogues of FYL-66, a potential agent against methicillin-resistant Staphylococcus aureus” (Medchemcomm, 2015):
Values after ≈ are worked out from the molar mass of the structure shown. Active and inactive are the calls of the source. The calls are words filed in the database; no cut-off is given here.

Assays:
[1] = AUC (0 to infinity) in Sprague-Dawley rat blood at 10 mg/kg, po by HPLC analysis; assay type: ADME, organism-based; design: dose 10 mg/kg, route oral, time infinity
[2] = Half life in Sprague-Dawley rat blood at 10 mg/kg, iv by HPLC analysis; assay type: ADME, organism-based
[3] = Tmax in Sprague-Dawley rat blood at 10 mg/kg, iv by HPLC analysis; assay type: ADME, organism-based
[4] = Tmax in Sprague-Dawley rat blood at 10 mg/kg, po by HPLC analysis; assay type: ADME, organism-based
[5] = Cmax in Sprague-Dawley rat blood at 10 mg/kg, iv by HPLC analysis; assay type: ADME, organism-based; design: dose 10 mg/kg, route intravenous
[6] = tested on: Pseudomonas aeruginosa; assay: Antibacterial activity against Pseudomonas aeruginosa ATCC 27853 incubated for 18 hrs by broth microdilution method; assay type: functional; settings: ATCC 27853, 18 h
[7] = tested on: Staphylococcus aureus; assay: Antibacterial activity against methicillin-susceptible Staphylococcus aureus ATCC 25923 incubated for 18 hrs by broth microdilution method; assay type: functional; settings: ATCC 25923, 18 h
[8] = Half life in Sprague-Dawley rat blood at 10 mg/kg, po by HPLC analysis; assay type: ADME, organism-based
[9] = Cytotoxicity against human L02 cells after 48 hrs by MTT assay; assay type: cell-based; settings: L02, 48 h
[10] = AUC (0 to infinity) in Sprague-Dawley rat blood at 10 mg/kg, iv by HPLC analysis; assay type: ADME, organism-based; design: dose 10 mg/kg, route intravenous, time infinity
[11] = Octanol/water partition coefficient, log P of the compound by HPLC assay; assay type: physicochemical
[12] = Solubility of compound in distilled water after 24 hrs by HPLC analysis; assay type: physicochemical
[13] = tested on: Staphylococcus aureus; assay: Antibacterial activity against methicillin-resistant Staphylococcus aureus ATCC 33591 in neutropenic Kunming mouse systemic infection model assessed as survival rate at 10 mg/kg, po administered 1 hr post inoculation measured after 1 week; assay type: functional, organism-based
[14] = tested on: Staphylococcus aureus; assay: Antibacterial activity against methicillin-resistant Staphylococcus aureus ATCC 43300 incubated for 18 hrs by broth microdilution method; assay type: functional; settings: ATCC 43300, 18 h
[15] = tested on: Escherichia coli; assay: Antibacterial activity against Escherichia coli ATCC 25922 incubated for 18 hrs by broth microdilution method; assay type: functional; settings: ATCC 25922, 18 h
[16] = Oral bioavailability in Sprague-Dawley rat blood at 10 mg/kg by HPLC analysis; assay type: ADME, organism-based
[17] = Clearance in Sprague-Dawley rat blood at 10 mg/kg, iv by HPLC analysis; assay type: ADME, organism-based
[18] = tested on: Staphylococcus aureus; assay: Antibacterial activity against methicillin-resistant Staphylococcus aureus ATCC 33591 in neutropenic Kunming mouse systemic infection model assessed as survival rate at 20 mg/kg, po administered 1 hr post inoculation measured on day 3; assay type: functional
[19] = tested on: Staphylococcus aureus; assay: Antibacterial activity against methicillin-susceptible Staphylococcus aureus CMCC 2603 incubated for 18 hrs by broth microdilution method; assay type: functional; settings: CMCC 2603, 18 h
[20] = tested on: Staphylococcus aureus; assay: Antibacterial activity against methicillin-susceptible Staphylococcus aureus ATCC 6538 incubated for 18 hrs by broth microdilution method; assay type: functional; settings: ATCC 6538, 18 h
[21] = tested on: Staphylococcus aureus; assay: Antibacterial activity against methicillin-susceptible Staphylococcus aureus ATCC 29213 incubated for 18 hrs by broth microdilution method; assay type: functional; settings: ATCC 29213, 18 h
[22] = Cytotoxicity against HEK293A cells after 48 hrs by MTT assay; assay type: cell-based; settings: Homo sapiens, HEK293-A
[23] = Cmax in Sprague-Dawley rat blood at 10 mg/kg, po by HPLC analysis; assay type: ADME, organism-based; design: dose 10 mg/kg, route oral
[24] = tested on: Staphylococcus aureus; assay: Antibacterial activity against methicillin-resistant Staphylococcus aureus ATCC 33591 in neutropenic Kunming mouse systemic infection model assessed as survival rate at 20 mg/kg, po administered 1 hr post inoculation measured on day 1 to 2; assay type: functional; settings: ATCC 33591, po
[25] = tested on: Staphylococcus aureus; assay: Antibacterial activity against methicillin-resistant Staphylococcus aureus ATCC 33591 incubated for 18 hrs by broth microdilution method; assay type: functional; settings: ATCC 33591, 18 h
[26] = Clearance in Sprague-Dawley rat blood at 10 mg/kg, po by HPLC analysis; assay type: ADME, organism-based
[27] = tested on: Enterococcus; assay: Antibacterial activity against vancomycin-resistant Enterococcus; assay type: functional
[28] = tested on: Streptococcus pneumoniae; assay: Antibacterial activity against Penicillin-resistant Streptococcus pneumoniae; assay type: functional
[29] = tested on: Enterococcus; assay: Antibacterial activity against Enterococcus; assay type: functional
[30] = tested on: Staphylococcus aureus; assay: Antibacterial activity against methicillin-resistant Staphylococcus aureus; assay type: functional

Row | SMILES | MIC [6] [µg/mL] | MIC [7] [µg/mL] | IC50 [9] [µg/mL] | logP [11] | solubility at 24 h [12] [µM] | MIC [14] [µg/mL] | MIC [15] [µg/mL] | MIC [19] [µg/mL] | MIC [20] [µg/mL] | MIC [21] [µg/mL] | IC50 [22] [µg/mL] | MIC [25] [µg/mL] | further results
1 | O=C(NC[C@H]1CN(c2ccc(-n3cc(-c4ccccn4)cn3)c(F)c2)C(=O)O1)C(F)F | > 32 | 2 (≈ 4.64 µM) | > 400 | 1.9 | 29.9 (≈ 12.9 µg/mL) | 2 (≈ 4.64 µM) | > 32 | 2 (≈ 4.64 µM) | 2 (≈ 4.64 µM) | 2 (≈ 4.64 µM) | 167 (≈ 387 µM) | 2 (≈ 4.64 µM) | AUC(0-inf) [1]: 51.6 µg·h/mL; half-life [2]: 324 min; Tmax [3]: 6.6 min; Tmax [4]: 1.5 h; Cmax [5]: 15000 ng/mL; half-life [8]: 532 min; AUC(0-inf) [10]: 57.6 µg·h/mL; Activity [13]: Active; bioavailability [16]: 89.6%; clearance [17]: 3 mL/min/kg; survival at 20 mg/kg ([18]; ATCC 33591, po): 30%; Cmax [23]: 4360 ng/mL; survival at 20 mg/kg [24]: 40%; CL/F [26]: 3.33 mL/min/kg
2 | CC(=O)NC[C@H]1CN(c2ccc(-n3cc(-c4ccccn4)cn3)c(F)c2)C(=O)O1 [listing 1 of 2 here] |  |  |  |  |  |  |  |  |  |  |  |  | Activity [18]: Active
3 | CC(=O)NC[C@H]1CN(c2ccc(-n3cc(-c4ccccn4)cn3)c(F)c2)C(=O)O1.Cl |  |  |  |  |  |  |  |  |  |  |  |  | MIC [27]: 0.25 µg/mL; MIC [28]: 0.25 µg/mL; MIC [29]: 0.25 µg/mL; MIC [30]: 0.25 µg/mL
4 | CC(=O)NC[C@H]1CN(c2ccc(-n3cc(-c4ccccn4)cn3)c(F)c2)C(=O)O1 [listing 2 of 2 here] | > 32 | 2 (≈ 5.06 µM) | 261 (≈ 660 µM) | 1.35 | 134 (≈ 52.8 µg/mL) | 2 (≈ 5.06 µM) | > 32 | 2 (≈ 5.06 µM) | 2 (≈ 5.06 µM) | 2 (≈ 5.06 µM) | 174 (≈ 440 µM) | 2 (≈ 5.06 µM) | AUC(0-inf) [1]: 157 µg·h/mL; half-life [2]: 52.8 min; Tmax [3]: 6.6 min; Tmax [4]: 11 h; MIC [27]: 0.25 µg/mL (≈ 0.632 µM); half-life [8]: 785 min; AUC(0-inf) [10]: 205 µg·h/mL; bioavailability [16]: 76.7%; clearance [17]: 0.833 mL/min/kg; Cmax [23]: 5770 ng/mL; survival at 20 mg/kg [24]: 30%; MIC [28]: 0.25 µg/mL (≈ 0.632 µM); MIC [29]: 0.25 µg/mL (≈ 0.632 µM); MIC [30]: 0.25 µg/mL (≈ 0.632 µM); CL/F [26]: 1.5 mL/min/kg
5 | O=C1O[C@@H](CNC(=O)C(F)(F)F)CN1c1ccc(-n2cc(-c3ccccn3)cn2)c(F)c1 | > 32 | > 64 | > 400 | ≥ 1.78 | 114 (≈ 51 µg/mL) | > 64 | > 32 | > 64 | > 64 | > 64 | > 400 | > 64 | 
6 | O=C1O[C@@H](CSc2cccs2)CN1c1ccc(-n2cc(-c3ccccn3)cn2)c(F)c1 | > 32 | > 32 | > 400 | 4.29 | 8.5 (≈ 3.85 µg/mL) | > 32 | > 32 | > 32 | > 32 | > 32 | > 400 | > 32 | 
7 | O=C1CSC(=O)N1C[C@H]1CN(c2ccc(-n3cc(-c4ccccn4)cn3)c(F)c2)C(=O)O1 | > 32 | > 32 | > 400 | 2.18 | 26.9 (≈ 12.2 µg/mL) | > 32 | > 32 | > 32 | > 32 | > 32 | 283 (≈ 624 µM) | > 32 | 
8 | CONC(=O)[C@H]1CN(c2ccc(-n3cc(-c4ccccn4)cn3)c(F)c2)C(=O)O1 | > 32 | 16 (≈ 40.3 µM) | > 400 | ≥ 1.58 | 78.1 (≈ 31 µg/mL) | 16 (≈ 40.3 µM) | > 32 | 16 (≈ 40.3 µM) | 16 (≈ 40.3 µM) | 16 (≈ 40.3 µM) | > 400 | 16 (≈ 40.3 µM) | 
9 | CC(=O)NC[C@H]1CN(c2ccc(N3CCOCC3)c(F)c2)C(=O)O1 [LINEZOLID] | > 32 |  | 213 (≈ 631 µM) |  |  |  | > 32 |  |  |  | 215 (≈ 637 µM) |  | Activity [18]: Active; survival at 20 mg/kg [24]: 30%
10 | O=C1O[C@@H](CN2CCCCC2)CN1c1ccc(-n2cc(-c3ccccn3)cn2)c(F)c1 | > 32 | 32 (≈ 75.9 µM) | > 400 | 3.1 | 219 (≈ 92.4 µg/mL) | 32 (≈ 75.9 µM) | > 32 | > 32 | 32 (≈ 75.9 µM) | 32 (≈ 75.9 µM) | > 400 | 32 (≈ 75.9 µM) | 
11 | CN1CCN(C[C@H]2CN(c3ccc(-n4cc(-c5ccccn5)cn4)c(F)c3)C(=O)O2)CC1 | > 32 | > 32 | 70 (≈ 160 µM) | 2.2 | 1690 (≈ 738 µg/mL) | > 32 | > 32 | > 32 | > 32 | > 32 | 70 (≈ 160 µM) | > 32 | 
12 | COC(=O)NC[C@H]1CN(c2ccc(-n3cc(-c4ccccn4)cn3)c(F)c2)C(=O)O1 | > 32 | 4 (≈ 9.72 µM) | 71 (≈ 173 µM) | 2.03 | 34.1 (≈ 14 µg/mL) | 4 (≈ 9.72 µM) | > 32 | 4 (≈ 9.72 µM) | 4 (≈ 9.72 µM) | 4 (≈ 9.72 µM) | 306 (≈ 744 µM) | 4 (≈ 9.72 µM) | 
13 | CN(C)S(=O)(=O)NC[C@H]1CN(c2ccc(-n3cc(-c4ccccn4)cn3)c(F)c2)C(=O)O1 | > 32 | > 32 | 158 (≈ 343 µM) | 1.38 | 472 (≈ 217 µg/mL) | > 32 | > 32 | > 32 | > 32 | > 32 | 249 (≈ 541 µM) | > 32 | 
14 | O=C1CCC(=O)N1C[C@H]1CN(c2ccc(-n3cc(-c4ccccn4)cn3)c(F)c2)C(=O)O1 | > 32 | > 32 | > 400 | 1.58 | 45.3 (≈ 19.7 µg/mL) | > 32 | > 32 | > 32 | > 32 | > 32 | > 400 | > 32 | 
15 | O=C1O[C@@H](CN2CCC(O)CC2)CN1c1ccc(-n2cc(-c3ccccn3)cn2)c(F)c1 | > 32 | > 32 | > 400 | 1.63 | 45.9 (≈ 20.1 µg/mL) | > 32 | > 32 | > 32 | > 32 | > 32 | > 400 | > 32 | 
16 | CS(=O)(=O)NC[C@H]1CN(c2ccc(-n3cc(-c4ccccn4)cn3)c(F)c2)C(=O)O1 | > 32 | > 64 | > 400 | 1.38 | 2.3 (≈ 0.992 µg/mL) | > 64 | > 32 | > 64 | > 64 | > 64 | 314 (≈ 728 µM) | > 64 | 
17 | O=C1OC(Cn2ccnc2)CN1c1ccc(-n2cc(-c3ccccn3)cn2)c(F)c1 (single isomer, unassigned) | > 32 | > 32 | 350 (≈ 865 µM) | 1.73 | 12.3 (≈ 4.97 µg/mL) | > 32 | > 32 | > 32 | > 32 | > 32 | > 400 | > 32 | 
